Assay results taken from patent publication US20070077653A1, “Modulation of cell intrinsic strain to control matrix synthesis, secretion, organization and remodeling” (MEDTRAIN TECHNOLOGIES, LLC, priority 2003, published 2007).

Tests used:
[1] = system: gel matrix; assay: Gel matrix contraction in a culture system; format: cell-based
[2] = system: cell modulus; conditions: Wu, H. W. et al., Scanning, 1998; cited from earlier work
[3] = system: elastin; assay: Gene expression in BATs by quantitative RT-PCR; format: cell-based, human
Experimental: (§1) Primary human tendon internal fibroblasts (HTIFs) were isolated from discarded human tendon tissue as described previously (Banes et al., J. Ortho Res., 6, 73-82, 1988). HTIFs from passage 2 to 4 were used in this study. BATs™ were fabricated at a cell density of 2 million cells/ml collagen gel suspension (Vitrogen). Cells were incubated at 37° C. for 24 h before addition of 100 pM IL-1β and inhibitors. BAT™ images were recorded with a scanner and automated imaging software, ScanFlex™ (Flexcell International Corp.). Medium was refreshed every 24 h. On day 5, BATs™ were collected, total RNA extracted with an RNeasy mini kit (QIAGen), cDNA synthesized with SuperScriptII (Invitrogen) and quantitative PCR carried out using a quantitative PCR kit from Ambion. The PCR products were separated on 2% agarose gels and the bands were quantitated in Photoshop. The elasticity of BATs™ was tested on day 5. BATs™ were subjected to a maximum stretch (20% elongation, 1 Hz for 1 h) and the BAT images were recorded for 24 h after stretch.

[4] = system: human tendon internal fibroblast (HTIF)-populated bioartificial tendons (BATs™); assay: Contraction of HTIF-populated BATs (scanner imaging); format: cell-based; conditions: 100 pM IL-1β; 24 h post addition
Experimental: as §1

[5] = system: human tendon internal fibroblast (HTIF)-populated bioartificial tendons (BATs™); assay: Elasticity of BATs by length recovery after maximum stretch; format: cell-based; conditions: 100 pM IL-1β
Text: In order to find a better therapeutic method for tendon/ligament repair and/or replacement, several in vitro models for engineered tendon have been developed recently (Awad et al., J. Biomed. Mater Res., 51(2), 233-240, 2000). One of them is a BioArtificial Tendon (BAT™) model system utilizing tenocyte-populated molded collagen gels (Awad et al., J. Biomed. Mater Res., 51(2), 233-240, 2000). This 3D BAT™ system allows the testing of tenocyte responses to drugs, cytokines and mechanical loading but is too weak to replace conventional grafts materials. In an attempt to modulate the material properties of the cell-gel composite, the influence of IL-1β on the elasticity of human tendon internal fibroblast (HTIF)-populated bioartificial tendons (BATs™) was investigated. IL-1β has been reported to increase the expression of matrix metalloproteinases (MMPs) and elastin. It was hypothesized that IL-1β might increase the elasticity of BATs™ by up-regulating the expression of elastin and down-regulating matrix protein (Collagen I) expression. Gene expression was quantified with quantitative RT-PCR. The elasticity of BATs™ was determined by length recovery after stretch. The influence of IL-1β on the actin cytoskeleton and integrin attachment to matrix in BATs™ was tested +/− cytochalasin D or GRGDTP, respectively.
as §1, with “BATs™ were fabricated at a cell density of 2 million cells/ml collagen gel suspension (Vitrogen). Cells were incubated at 37° C. for 24 h before addition of 100 pM IL-1β and inhibitors.” left out, “Medium was refreshed every 24 h.” left out, “The elasticity of BATs™ was tested on day 5.” left out

[6] = system: Collagen I; assay: Gene expression in BATs by quantitative RT-PCR; format: cell-based, human; conditions: 100 pM IL-1β, day 5
Experimental: as §1

[7] = system: MMPs 1, 2, 3; assay: Gene expression in BATs by quantitative RT-PCR; format: cell-based, human; conditions: 100 pM IL-1β, day 5
Experimental: as §1

[8] = system: human tendon internal fibroblasts (HTIFs); assay: Young's modulus of HTIFs by micropipette aspiration; format: cell-based; conditions: 100 pM IL-1β, day 5
Experimental: (§2) Primary HTIFs were isolated after surgery from discarded human tendon tissue as described previously (Banes et al., J. Ortho Res., 6, 73-82, 1988). HTIFs from passage 2 to 4 were used in this study. HTIFs were allowed to attach and spread for 24 h before addition of 100 pM IL-1β. Medium was refreshed every 24 h. On day 5, cells were collected for cell modulus measurement and gene expression analysis. Young's modulus of HTIFs was measured by aspirating a cell into the bore of a calibrated micropipette with a calibrated vacuum source. The cell-aspiration process was videotaped for subsequent data analysis to calculate the pipette bore size, the steady state pressure required to aspirate a segment of a cell into the pipette bore and the time constant for aspiration. Cytoskeleton change was monitored by rhodamine-phalloidin staining. The expression levels of β-actin was determined by quantitative RT-PCR. Total RNA was extracted with an RNeasy mini kit (QIAGen), cDNA was synthesized with SuperScriptII (Invitrogen) and quantitative PCR was carried out using 18S rRNA as an internal control (Ambion). The PCR products were separated on 2% agarose gels and pixel intensity of the bands was quantitated in Photoshop.

[9] = system: β-actin; assay: β-actin expression by quantitative RT-PCR; format: cell-based, human; conditions: 100 pM IL-1β; for reduction of β-actin message: 24 h post addition
Experimental: as §2, with “On day 5, cells were collected for cell modulus measurement and gene expression analysis.” left out

[10] = system: β-actin; assay: Cytoskeleton change by rhodamine-phalloidin staining; format: cell-based, human; conditions: 100 pM IL-1β
[11] = system: human tendon internal fibroblast (HTIF) populated bioartificial tendons (BATs™); assay: Material properties (modulus) of BATs; format: cell-based; conditions: IL-1β treated BATs

## Nc1ncnc2c1ncn2[C@@H]1O[C@H](COP(=O)(O)OP(=O)(O)OP(=O)(O)O)[C@@H](O)[C@H]1O [ATP, adenosine triphosphate]
[1]
  gel matrix contraction: retard gel matrix contraction

## C=C1[C@@H](C)[C@H]2[C@H](Cc3ccccc3)NC(=O)[C@]23[C@H](OC(C)=O)/C=C/[C@@](C)(O)C(=O)[C@@H](C)C/C=C/[C@H]3[C@@H]1O [cytochalasin D]
[2]
  cell modulus: decreased cell modulus by up to three fold

## GRGDTP
[3]; 100 μg/ml GRGDTP with 100 pM IL-1β
  stimulation of elastin mRNA by IL-1β: reduced its stimulation by IL-1β
[3]; 100 μg/ml GRGDTP, without IL-1β
  elastin mRNA level: did not affect

## interleukin-1beta [IL-1β]
[4]
  contraction of BATs: reduced the contraction
[5]; 20% elongation, 1 Hz for 1 h, day 5
  survival of maximum stretch: survived the maximum stretch
[5]; after maximum stretch (20% elongation, 1 Hz, 1 h)
  time for elongated BATs to recover to original length post stretch: 8 h
[5]; tested on day 5
  elasticity of BATs: increased the elasticity
[6]
  expression of Collagen I: down-regulated
[7]
  expression of MMPs 1, 2, 3: up-regulated
[3]; 100 pM IL-1β, BATs, day 5
  expression of elastin: up-regulated
[8]; HTIFs from patient one
  reduction of cell modulus: 62%
[8]; HTIFs from patient two
  reduction of cell modulus: 45%
[9]; 2D cultures
  reduction of β-actin message: more than 50%
[9]; 3D cultures (BATs)
  reduction of β-actin message: more than 50%
[9]; 3D cultures, day 3
  message level of β-actin: returned to normal
[10]; 2D cultures
  cells with disrupted cytoskeletal structure: about 20%
[10]; 2D cultures, day 5
  protein level of β-actin: mostly recovered
[10]; 3D bioartificial tendons, day 5
  fluorescence intensity of rhodamine-phalloidin staining compared to control: much lower
[10]; BATs, days 1 and 3
  increase of intercellular space at the perpendicular direction of BATs: more than 100%
[10]; rhodamine-phalloidin staining
  protein level of β-actin: down regulated
[11]
  modulus of BATs: reduced the modulus
